Results on five compounds are retold here after patent US20060252774A1, “Regulation of type 5 adenylyl cyclase for treatment of neurodegenerative and cardiac diseases” (priority 2002, published 2006).

For orientation: IC50 means the concentration at which inhibition is half-maximal.

Entries after “also recorded” stand apart in the source; their conditions may differ.

One test deals with H9C2 cells. Briefly: cAMP accumulation in H9C2 cells. Type of test: cell-based. Conditions: 10 micro M forskolin and isoproterenol; compound 10 micro M. On the procedure:
FIG. 10: Effect of NKY80 and HI30435 on cAMP accumulation in H9C2 cells.[:] H9C2 cells were incubated in the presence of 10 micro M forskolin and isoproterenol and NKY80 or HI30435 (10 micro M), followed by cAMP accumulation assays (n=4-5, p<0.01).
(§1) Inventors will first determine the selectivity among the AC isoforms (FIG. 12). […] The IC50 values were calculated to be 0.32 micro M for AC5, 11.1 micro M for AC3, 65.3 micro M for AC2. The selectivity ratio of HI30435 was 207 between AC5 and AC2. […] The selectivity ratio was 18 between AC5 and AC2.
On the technique in general: Changes in cAMP serve as a functional read-out for many G protein-coupled receptors.

The test system of test [1] is AC5. Nature of the test: AC catalytic activity inhibition, AC5 isoform. Format: biochemical. Conditions: for selectivity ratio between AC5 and AC2: inhibition of AC catalytic activity.
From the text: (§2) FIG. 11. […] The relative inhibitory activity versus control (% control activity) for various AC isoforms are shown. Data are means±S.D. of quadruplicate determinations.
(§3) Classic inhibitors of AC include adenosine analogs or P-site inhibitors, and MDL12330A, a non-nucleic acid inhibitor. However, not much was known about the isoform selectivity of these inhibitors. […] It was previously noted that AC2 was less sensitive to THFA than the other isoforms, giving a selectivity ratio of 1.8 when compared between AC6 and AC2.
as §1

Test [2] addresses T1, AC2 (Rattus norvegicus, UniProt P26769). Briefly: AC catalytic activity inhibition, AC2 isoform. Format: biochemical. The text has this: (§4) Classic inhibitors of AC include adenosine analogs or P-site inhibitors, and MDL12330A, a non-nucleic acid inhibitor.
(§5) Inventors will first determine the selectivity among the AC isoforms (FIG. 12).

In test [3] the target is T2, AC3 (Rattus norvegicus, UniProt P21932).
T2 sequence (P21932 1-1144): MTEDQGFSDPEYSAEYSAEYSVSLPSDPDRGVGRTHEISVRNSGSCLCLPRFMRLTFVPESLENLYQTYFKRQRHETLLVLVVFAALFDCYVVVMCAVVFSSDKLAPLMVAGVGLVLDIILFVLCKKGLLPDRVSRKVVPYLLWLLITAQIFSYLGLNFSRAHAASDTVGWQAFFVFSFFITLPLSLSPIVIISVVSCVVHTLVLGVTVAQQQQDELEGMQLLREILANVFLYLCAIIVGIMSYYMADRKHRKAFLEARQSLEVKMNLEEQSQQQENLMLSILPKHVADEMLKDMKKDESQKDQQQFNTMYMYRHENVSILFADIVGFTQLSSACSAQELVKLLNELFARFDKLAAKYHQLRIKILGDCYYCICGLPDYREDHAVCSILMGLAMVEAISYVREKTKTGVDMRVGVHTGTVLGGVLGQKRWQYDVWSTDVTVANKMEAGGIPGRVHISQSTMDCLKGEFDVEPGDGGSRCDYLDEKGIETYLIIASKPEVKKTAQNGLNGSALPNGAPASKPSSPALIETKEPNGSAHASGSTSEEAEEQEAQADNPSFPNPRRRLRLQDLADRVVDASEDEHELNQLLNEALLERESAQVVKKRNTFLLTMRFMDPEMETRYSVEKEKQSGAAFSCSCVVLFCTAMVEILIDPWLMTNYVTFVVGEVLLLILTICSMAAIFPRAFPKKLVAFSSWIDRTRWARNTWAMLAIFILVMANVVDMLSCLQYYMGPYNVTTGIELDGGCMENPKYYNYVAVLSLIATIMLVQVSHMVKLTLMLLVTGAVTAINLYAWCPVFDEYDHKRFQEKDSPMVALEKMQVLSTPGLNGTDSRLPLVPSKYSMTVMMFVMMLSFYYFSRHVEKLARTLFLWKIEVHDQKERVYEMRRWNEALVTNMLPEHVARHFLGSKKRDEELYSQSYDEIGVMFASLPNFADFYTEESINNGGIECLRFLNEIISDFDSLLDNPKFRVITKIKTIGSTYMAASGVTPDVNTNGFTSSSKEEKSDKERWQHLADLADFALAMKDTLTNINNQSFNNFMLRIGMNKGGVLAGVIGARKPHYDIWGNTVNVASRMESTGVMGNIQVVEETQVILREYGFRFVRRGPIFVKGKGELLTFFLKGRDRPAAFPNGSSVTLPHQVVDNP
Nature of the test: AC catalytic activity inhibition, AC3 isoform. Format: biochemical. Conditions: for IC50: 5 mM MgCl2 with Gsalpha/GTPgammaS/forskolin (50 micro M).
From the text: as §4, §5

Test [4] deals with T3, AC5 (Canis lupus familiaris, UniProt P30803). Briefly: AC catalytic activity inhibition, AC5 isoform. Format: biochemical. Further details: IC50 for AC5; other: 5 mM MgCl2 with Gsalpha/GTPgammaS/forskolin (50 micro M); other: in the presence of Gsalpha/GTPgammaS/forskolin; other: 10 micro M. To be noted: for IC50: 5 mM MgCl2 with Gsalpha/GTPgammaS/forskolin (50 micro M).
T3 sequence (P30803 whole entry, canonical isoform): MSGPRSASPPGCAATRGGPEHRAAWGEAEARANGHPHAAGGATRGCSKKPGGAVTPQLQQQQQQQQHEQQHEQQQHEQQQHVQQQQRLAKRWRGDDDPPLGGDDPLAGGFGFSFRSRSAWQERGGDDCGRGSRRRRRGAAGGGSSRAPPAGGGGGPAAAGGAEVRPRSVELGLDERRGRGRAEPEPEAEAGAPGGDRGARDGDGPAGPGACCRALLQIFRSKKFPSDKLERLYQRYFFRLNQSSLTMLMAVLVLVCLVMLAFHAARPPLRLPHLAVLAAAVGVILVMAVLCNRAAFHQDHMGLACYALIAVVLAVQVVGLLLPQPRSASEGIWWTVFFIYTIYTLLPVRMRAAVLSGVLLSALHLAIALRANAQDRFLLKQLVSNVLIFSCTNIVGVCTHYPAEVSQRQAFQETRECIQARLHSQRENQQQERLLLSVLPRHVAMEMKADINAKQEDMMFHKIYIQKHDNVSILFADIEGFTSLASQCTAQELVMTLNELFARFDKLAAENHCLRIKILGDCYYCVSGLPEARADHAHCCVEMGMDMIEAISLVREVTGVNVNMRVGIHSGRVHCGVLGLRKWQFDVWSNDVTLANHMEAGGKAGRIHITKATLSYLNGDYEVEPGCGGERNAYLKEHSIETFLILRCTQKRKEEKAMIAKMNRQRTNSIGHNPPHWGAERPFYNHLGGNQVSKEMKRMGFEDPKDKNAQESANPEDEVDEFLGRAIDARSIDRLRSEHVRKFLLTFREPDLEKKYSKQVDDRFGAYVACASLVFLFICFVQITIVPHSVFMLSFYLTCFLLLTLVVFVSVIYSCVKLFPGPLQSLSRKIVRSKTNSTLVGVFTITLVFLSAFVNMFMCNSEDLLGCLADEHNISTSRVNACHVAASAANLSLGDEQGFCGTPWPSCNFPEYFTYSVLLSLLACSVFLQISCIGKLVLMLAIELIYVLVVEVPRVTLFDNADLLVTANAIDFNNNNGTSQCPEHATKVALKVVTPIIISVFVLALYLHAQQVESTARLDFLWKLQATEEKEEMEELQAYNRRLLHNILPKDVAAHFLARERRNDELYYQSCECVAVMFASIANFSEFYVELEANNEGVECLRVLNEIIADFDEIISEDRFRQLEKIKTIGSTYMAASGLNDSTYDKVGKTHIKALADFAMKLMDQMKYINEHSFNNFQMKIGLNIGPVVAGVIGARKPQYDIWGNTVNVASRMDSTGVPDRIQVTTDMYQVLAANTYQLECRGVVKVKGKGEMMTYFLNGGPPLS
From the text: as §2, §3, §1

The target of test [5] is T3, AC5. Also on record: made in house; host or cells: High Five insect cells (membranes). To be noted: previously reported; potency on AC2 and AC3 remained similar; cited from earlier work.
Another test has as its target AC6 (Homo sapiens, UniProt O43306). To be noted: previously noted; cited from earlier work.
The test system of a further test is striatal AC. Nature of the test: D1 or D2 receptor agonist-stimulated AC activity in striatal membrane preparations. To be noted: WT striatal membranes; 1 μM. Type of test: biochemical, mouse.
The subject of test [6] is WT and AC5KO mice. Briefly: Locomotor activity test with dopaminergic agonists. Type of test: in vivo, mouse. Conditions: subcutaneous, SKF38393 25 or 50 mg/kg, cabergoline 0.2 or 1.0 mg/kg. On the procedure: FIG. 27. Motor dysfunction in ACD-^−/− mice. Rotarod test (A)—Each mouse was placed on a 3.5-cm diameter rod covered with rubber to evaluate rotarod performance (14). Mice were left for 1 minute on the rod for habituation. The rod rotated gradually increasing from 4 to 40 rpm over the course of 5 min and the time that mice could stay on an accelerating rotarod without failing was recorded. Five trials were conducted for each individual 10-25 min apart within the dark phase of the light/dark cycle. Mice that stayed on the rotarod for >300 sec were considered complete responders, and their latencies were recorded as 300 sec. *p<0.05, relative to ^+/+; ^+/−, n=17-20. […] Locomotor activity (B) was assessed using an activity monitor equipped with photocell beams (Columbus Instruments, Ohio, USA). The number of photobeam interruptions in each perpendicular axis was recorded and totaled for 5 min. The behavior of the mice was recorded simultaneously by video camera for later analysis, and their rearing actions were counted (C). *p<0.05, relative to ^+/+, n=15-20. […] The time until it turned completely downward (open bars, Tturn) and the time until it climbed down to the floor (closed bars, TLA) were measured *p<0.01, relative to ^+/+, n=14-17. […]
FIG. 32. […] In rotarod test, the best performance out of five trials in each individual was evaluated. […]

In test [7] the test system is WT and AC5KO mice. Nature of the test: Pole test with dopaminergic agonists. Type of test: in vivo, mouse. To be noted: subcutaneous. On the procedure:
(§6) FIG. 27. Motor dysfunction in ACD-^−/− mice. Rotarod test (A)—Each mouse was placed on a 3.5-cm diameter rod covered with rubber to evaluate rotarod performance (14). Mice were left for 1 minute on the rod for habituation. The rod rotated gradually increasing from 4 to 40 rpm over the course of 5 min and the time that mice could stay on an accelerating rotarod without failing was recorded. Five trials were conducted for each individual 10-25 min apart within the dark phase of the light/dark cycle. Mice that stayed on the rotarod for >300 sec were considered complete responders, and their latencies were recorded as 300 sec. *p<0.05, relative to ^+/+; ^+/−, n=17-20. Activity tests (B and C)—The tests were performed as previously described (14, 15). Mice were put in the darkened testing room 60 minutes for habituation before testing. Locomotor activity (B) was assessed using an activity monitor equipped with photocell beams (Columbus Instruments, Ohio, USA). The number of photobeam interruptions in each perpendicular axis was recorded and totaled for 5 min. The behavior of the mice was recorded simultaneously by video camera for later analysis, and their rearing actions were counted (C). *p<0.05, relative to ^+/+, n=15-20. Pole test (D)—In order to evaluate bradykinesia, pole test was performed (16). In brief, mice were placed head upward on the top of a rough-surfaced pole (8 mm in diameter and 50 cm in height) that was wrapped with gauze to prevent slipping. The time until it turned completely downward (open bars, Tturn) and the time until it climbed down to the floor (closed bars, TLA) were measured *p<0.01, relative to ^+/+, n=14-17. Means±SEM are shown. Homozygous to (ACD^−/−) (closed circles, ^−/−), heterozygous (shaded circles, ^+/−), and wild type (WT) (open circles, ^+/+).
(§7) FIG. 32. Effect of dopaminergic agonists on motor functions Effects of SKF38393 on locomotor activity (A), rotarod test (B), and pole test (C) were compared. […] In rotarod test, the best performance out of five trials in each individual was evaluated. […]

Test [8] deals with WT and AC5KO mice. Briefly: Rotarod test with dopaminergic agonists. Type of test: in vivo, mouse. To be noted: WT and AC5KO; subcutaneous; 25 or 50 mg/kg. The protocol: as §6, §7
The target in test [9] is T3, AC5. Nature of the test: Adenyl cyclase stimulation by forskolin derivatives, High five cell membranes overexpressing type V. Also on record: made in house; host or cells: High Five insect cells (membranes). Format: biochemical. The protocol:
(§8) FIG. 15: Effect of forskolin, 6[3-(dimethylamino)propionyl]-14,15-dihydroforskolin, and NKH477 on adenyl cyclase [isforms.] isoforms: Forskolin derivatives dose response effect (A-C). High five cell membranes overexpressing type II (A), type III (B), and type V (C) adenyl cyclases. Adenyl cyclase activity was measured in the presence of 5 mM of MgCl2 with various concentrations of forskolin (closed circles), 6[3-(dimethylamino)propionyl]-14,15-dihydroforskolin (D, open triangles) or NKH477 (open circles). Means±SEM from 4 independent experiments are shown. *, p<0.01 differences from the value with forskolin.

Test [10] deals with T2, AC3. Nature of the test: Adenyl cyclase stimulation by forskolin derivatives, High five cell membranes overexpressing type III. Type of test: biochemical. To be noted: 5 mM MgCl2. On the procedure: as §8
Test [11] concerns the target T1, AC2. Nature of the test: Adenyl cyclase stimulation by forskolin derivatives, High five cell membranes overexpressing type II. Also on record: made in house; host or cells: High Five insect cells (membranes). Format: biochemical. To be noted: 5 mM MgCl2. The protocol:
as §8

[12] abbreviates: in the presence of Gsalpha/GTPgammaS/forskolin.

Chain of AC6 (O43306 whole entry): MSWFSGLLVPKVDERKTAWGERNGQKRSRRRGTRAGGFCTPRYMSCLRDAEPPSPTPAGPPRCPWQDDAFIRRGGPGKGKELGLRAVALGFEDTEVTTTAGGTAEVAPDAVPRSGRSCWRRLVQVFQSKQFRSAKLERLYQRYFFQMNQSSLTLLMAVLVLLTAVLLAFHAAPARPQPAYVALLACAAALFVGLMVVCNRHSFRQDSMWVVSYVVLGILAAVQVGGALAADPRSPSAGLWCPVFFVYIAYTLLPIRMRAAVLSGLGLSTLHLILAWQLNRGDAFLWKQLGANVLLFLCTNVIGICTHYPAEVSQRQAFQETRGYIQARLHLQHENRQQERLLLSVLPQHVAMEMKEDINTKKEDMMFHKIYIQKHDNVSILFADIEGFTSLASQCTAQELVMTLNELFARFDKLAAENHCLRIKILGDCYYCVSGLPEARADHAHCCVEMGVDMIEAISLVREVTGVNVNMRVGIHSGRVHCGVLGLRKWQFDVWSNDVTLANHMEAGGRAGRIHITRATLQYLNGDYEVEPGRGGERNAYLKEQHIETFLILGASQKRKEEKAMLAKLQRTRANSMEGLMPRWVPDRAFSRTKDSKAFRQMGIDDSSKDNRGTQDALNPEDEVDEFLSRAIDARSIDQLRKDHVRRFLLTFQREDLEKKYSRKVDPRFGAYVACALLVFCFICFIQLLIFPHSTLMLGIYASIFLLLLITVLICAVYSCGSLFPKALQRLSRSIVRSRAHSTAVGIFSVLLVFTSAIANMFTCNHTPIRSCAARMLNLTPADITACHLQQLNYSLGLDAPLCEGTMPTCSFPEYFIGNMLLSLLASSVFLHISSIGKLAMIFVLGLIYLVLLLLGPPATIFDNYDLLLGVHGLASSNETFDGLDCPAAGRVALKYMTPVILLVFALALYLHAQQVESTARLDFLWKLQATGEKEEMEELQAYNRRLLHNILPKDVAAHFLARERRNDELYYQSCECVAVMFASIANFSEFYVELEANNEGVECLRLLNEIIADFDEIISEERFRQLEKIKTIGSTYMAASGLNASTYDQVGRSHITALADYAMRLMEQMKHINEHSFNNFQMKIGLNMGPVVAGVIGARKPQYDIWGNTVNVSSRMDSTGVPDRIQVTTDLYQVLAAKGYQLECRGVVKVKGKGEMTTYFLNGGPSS
T1 sequence (P26769 whole entry, canonical isoform): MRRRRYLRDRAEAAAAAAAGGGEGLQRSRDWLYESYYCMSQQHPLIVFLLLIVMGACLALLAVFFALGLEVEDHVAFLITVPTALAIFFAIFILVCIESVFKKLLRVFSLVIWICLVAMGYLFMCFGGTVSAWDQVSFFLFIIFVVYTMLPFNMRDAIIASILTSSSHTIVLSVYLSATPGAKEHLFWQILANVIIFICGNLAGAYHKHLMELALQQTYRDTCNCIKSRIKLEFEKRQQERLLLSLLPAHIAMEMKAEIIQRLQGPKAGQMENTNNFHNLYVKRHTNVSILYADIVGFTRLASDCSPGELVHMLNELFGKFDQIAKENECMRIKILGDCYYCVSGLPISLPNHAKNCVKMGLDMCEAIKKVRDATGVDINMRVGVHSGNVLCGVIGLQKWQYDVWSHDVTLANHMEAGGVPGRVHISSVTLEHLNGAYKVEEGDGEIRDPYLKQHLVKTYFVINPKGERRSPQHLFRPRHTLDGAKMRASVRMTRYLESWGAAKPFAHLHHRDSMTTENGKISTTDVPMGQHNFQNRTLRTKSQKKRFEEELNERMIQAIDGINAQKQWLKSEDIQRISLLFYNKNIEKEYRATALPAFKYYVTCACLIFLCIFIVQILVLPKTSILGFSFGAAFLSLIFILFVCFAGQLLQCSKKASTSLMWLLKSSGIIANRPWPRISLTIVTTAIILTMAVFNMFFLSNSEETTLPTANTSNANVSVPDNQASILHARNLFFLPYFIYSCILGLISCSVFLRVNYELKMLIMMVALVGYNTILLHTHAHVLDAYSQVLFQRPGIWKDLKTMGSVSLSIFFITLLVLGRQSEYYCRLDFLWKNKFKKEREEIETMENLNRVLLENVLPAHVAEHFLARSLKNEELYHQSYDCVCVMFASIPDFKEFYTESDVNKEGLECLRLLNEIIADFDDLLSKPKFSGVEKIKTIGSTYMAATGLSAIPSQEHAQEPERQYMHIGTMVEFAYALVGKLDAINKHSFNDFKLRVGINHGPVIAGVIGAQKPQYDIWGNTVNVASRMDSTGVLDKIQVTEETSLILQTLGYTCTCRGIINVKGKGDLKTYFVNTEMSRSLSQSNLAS
Protocol for striatal AC: AC catalytic activity was compared as previously described (15) using the membrane preparations from the striatum, cortex and cerebellum A). AC assays were conducted in the presence of 50 μM forskolin. […] D1 or D2 receptor agonist-stimulated AC activity was also examined (C). […] Each AC catalytic activity was compared to that in the presence of 10 μM GTP alone. Open bars, WT (^+/+); closed bars, AC5KO (^−/−). Means±SEM are shown. *p<0.05, **p<0.01, relative to ^+/+, n=4.
Striatal tissues were dissected from mice and membrane preparations were prepared for AC assays as previously described (10, 11).
We also examined receptor agonist-stimulated AC activity (FIG. 3C).

Regarding `Nc1ncc2c(n1)CC(c1ccco1)CC2=O` (centres unmarked) [NKY80, 2-amino-7-(2-furanyl)-7,8-dihydro-5(6H)-quinazolinone], the “cAMP accumulation in H9C2 cells” value in the test on H9C2 cells is “but not NKY80, inhibited cAMP accumulation; also recorded: did not”. Moreover, in the test on AC5 [1] (Lineweaver-Burk plot analysis), the mode of inhibition entry was “not competitive with respect to ATP or forskolin”. Besides, in the test on AC5 [1], the “selectivity ratio between AC5 and AC2” value came out at 210. The IC50 was found to be 1700 µM against AC2 [2] (Gsalpha/GTPgammaS/forskolin), 132 µM against AC3 [3] and 8.3 µM on AC5 [4].
On to `C=C[C@@]1(C)CC(=O)[C@]2(O)[C@@]3(C)[C@@H](O)CCC(C)(C)[C@@H]3[C@H](OC(=O)CCN(C)C)[C@H](OC(C)=O)[C@@]2(C)O1` [NKH477], for which the “stimulation of AC5 (in words)” value at AC5 [5] is listed as “enhanced stimulation of AC5”.
`Nc1ncnc2c1ncn2C1CCCO1` (centres unmarked) [THFA, 9-(tetrahydro-2-furyl)adenine]: the “selectivity ratio between AC5 and AC2” value in the test on AC5 [1] is 130. In addition, the “selectivity ratio between AC6 and AC2” value at AC6 is recorded as 1.8. For the same compound, the IC50 at AC2 [2] (5 mM MgCl2 with Gsalpha/GTPgammaS/forskolin (50 micro M)) turned out to be 285 µM; at AC3 [3] it was 101 µM; on AC5 [4], 2.2 µM. On AC2 [2] (setting [12]), the “inhibition of AC2 (in words)” value was “only to a modest degree”. Moreover, the “inhibition of AC3 (in words)” value at AC3 [3] (setting [12]) is reported as “only to a modest degree”. The “inhibition of AC5 (in words)” value at AC5 [4] (setting [12]) was “potently inhibited AC5”.
Regarding `Oc1cc2c(cc1O)C(c1ccccc1)CNCC2` (centres unmarked) [SKF38393], the “stimulation of AC activity, increase over that with 10 μM GTP” value in the test on striatal AC stood at 40.7±2.6%. Besides, the locomotor activity entry in the test with WT and AC5KO mice [6] was “increased locomotor activity in both WT and AC5KO”. For the same compound, the pole test performance result in the test with WT and AC5KO mice [7] is reported as “improved pole test performance”. Moreover, the rotarod performance result with WT and AC5KO mice [8] is “did not improve rotarod performance in both WT and AC5KO”.
Take `CCC1(C)CC(=O)C2(O)C(C)(O1)C(OC(C)=O)C(OC(=O)CCN(C)C)C1C(C)(C)CCC(O)C12C` (centres unmarked) [6-3(dimethylaminopropionyl]-14,15-dihydroforskolin]: the “relative potency of stimulation versus forskolin, AC5” value at AC5 [9] (5 mM MgCl2) worked out at 139%. At AC5 [9] (forskolin derivatives), the “AC5 selectivity of stimulation (in words)” value is listed as “further enhancement in selectivity for AC5”. Further, the “relative potency of stimulation versus forskolin, AC3” value on AC3 [10] was 31%. In addition, the “relative potency of stimulation versus forskolin, AC2” value on AC2 [11] is 66%.
